Source: the supplement of paper PMC7224384

Assays:
MDA-MB-453 [1] = assay: drug sensitivity score (DSS), in combination with BLU9931 (DSS (weighted AUC score)); higher = more sensitive (stronger viability decrease); extreme values may be limits of the assay; settings: BLU9931 100 nM; 72 h
How it was run: (§1)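 Each 384-well plate held compounds from the FIMM Oncology set, predispensed in singlicate at five 10-fold dilutions spanning a 10,000-fold range, and each well then received 2000 MDA-MB-453 cells in medium with or without an FGFR4 inhibitor at 100 nM final. Plates stayed at 37 °C, 5% CO2 for 72 h, after which cellular ATP was measured with CellTiterGlo 2.0. Readings were converted per plate into percent viability against control wells, and the drug sensitivity score was taken as a weighted area under a four-parameter logistic fit.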

MDA-MB-453 [2] = assay: drug sensitivity score (DSS), single agent (DSS (weighted AUC score)); higher = more sensitive (stronger viability decrease); extreme values may be limits of the assay; settings: BLU9931 0 nM; 72 h
How it was run: as §1

Structure (SMILES) | drug sensitivity score (MDA-MB-453 [1]) | drug sensitivity score (MDA-MB-453 [2])
CCOC(=O)CCNc1cc(N2CCc3ccccc3CC2)nc(-c2ccccn2)n1 [GSK-J4] | 14 | 13.2
CC(C)[C@H](C(=O)Nc1ccc(C(=O)NO)cc1)c1ccccc1 [AR-42] | 17.8 | 18.1
Nc1ncnc2c1nc(N)n2[C@@H]1O[C@H](CO)[C@@H](O)[C@H]1O [8-amino-adenosine] | 25 | 22.4
COc1ccc(-c2ccc3c(N4CCOC[C@@H]4C)nc(N4CCOC[C@@H]4C)nc3n2)cc1CO [AZD8055] | 23.3 | 24.3
CS(=O)(=O)CCNCc1ccc(-c2ccc3ncnc(Nc4ccc(OCc5cccc(F)c5)c(Cl)c4)c3c2)o1 [Lapatinib] | 7 | 6.5
COc1cc2/c(=N/c3ccc(Br)cc3F)nc[nH]c2cc1OCC1CCN(C)CC1 [Vandetanib] | 0 | 0
FC(F)(F)c1ccc(CNc2ccc(Cc3c[nH]c4ncc(Cl)cc34)cn2)cn1 [Pexidartinib] | 0.1 | 1.2
CCN(CC)Cc1ccc2cc(COC(=O)Nc3ccc(C(=O)NO)cc3)ccc2c1 [Givinostat] | 10.3 | 11
CN1CCN(c2ccc(C(=O)Nc3n[nH]c4ccc(Cc5cc(F)cc(F)c5)cc34)c(NC3CCOCC3)c2)CC1 [Entrectinib] | 0 | 0
O=S(=O)(c1cccc2c(O)nccc12)N1CCCNCC1 [Hydroxyfasudil] | 0.2 | 0
Cn1cnc2c(F)c(Nc3ccc(Br)cc3Cl)c(C(=O)NOCCO)cc21 [Selumetinib] | 0.7 | 0.7
CCCCCCCCCCCCCCCCCCOP(=O)([O-])OC1CC[N+](C)(C)CC1 [Perifosine] | 0 | 0
CCCCCCCCc1ccc(CCC(N)(CO)CO)cc1 [Fingolimod] | 7.7 | 8.7
Clc1ccccc1C(c1ccccc1)(c1ccccc1)n1cccn1 [TRAM-34] | 0.6 | 1.6
Nc1ncn([C@H]2C[C@H](O)[C@@H](CO)O2)c(=O)n1 [Decitabine] | 0 | 0
CN1C(=O)N[C@H](Cc2c[nH]c3c(Cl)cccc23)C1=O [Necrostatin 2] | 0 | 0
COc1c(C)cnc(Cn2cnc3c(Cl)nc(N)nc32)c1C [BIIB021] | 20.1 | 19.5
COCCNCc1ccc(-c2cc3nccc(Oc4ccc(NC(=O)C5(C(=O)Nc6ccc(F)cc6)CC5)cc4F)c3s2)nc1 [Sitravatinib] | 0 | 0.6
COc1cc2ncnc(Nc3cccc(Cl)c3F)c2cc1OC(=O)N1CCN(C)C[C@H]1C [AZD3759] | 0.9 | 0

Structure (SMILES) | drug sensitivity score (MDA-MB-453 [1]) | drug sensitivity score (MDA-MB-453 [2])
Cc1cc2c(C(=O)NC[C@H](C)c3ccccc3)c(O)c(O)cc2c(O)c1-c1c(C)cc2c(C(=O)NC[C@H](C)c3ccccc3)c(O)c(O)cc2c1O [Sabutoclax] | 12.4 | 12.6
C=CC(=O)Nc1cccc(Nc2nc(Nc3ccc(N4CCN(C(C)=O)CC4)cc3OC)ncc2C(F)(F)F)c1 [Rociletinib] | 7.9 | 7.8
O=C(/C=C/c1cccc(S(=O)(=O)Nc2ccccc2)c1)NO [Belinostat] | 20.2 | 21.3
Cc1ncc(Cl)cc1NCc1ccc(C(=O)N[C@@H](CC2CCCC2)C(=O)NC2CC2)s1 | 0.5 | 0
COc1ccccc1S(=O)(=O)Nc1ccc2c(c1)CN(C)C(=O)N2 [PFI-1] | 8.4 | 8.2
CCn1c(-c2nonc2N)nc2c(C#CC(C)(C)O)ncc(OC[C@H]3CCCNC3)c21 | 15 | 13
CC1(C)CCC(c2ccc(Cl)cc2)=C(CN2CCN(c3ccc(C(=O)NS(=O)(=O)c4ccc(N[C@H](CCN5CCOCC5)CSc5ccccc5)c(S(=O)(=O)C(F)(F)F)c4)cc3)CC2)C1 [Navitoclax] | 2.4 | 0.3
CCc1c2c(nc3ccc(O)cc13)-c1cc3c(c(=O)n1C2)COC(=O)[C@]3(O)CC [SN-38] | 26.2 | 28.8
CCn1c(=O)c(-c2ccc(Cl)cc2Cl)cc2cnc(Nc3ccc(N4CCNCC4)c(F)c3)nc21 [FRAX486] | 1.1 | 3.9
Cc1c(N)nc([C@H](CC(N)=O)NC[C@H](N)C(N)=O)nc1C(=O)N[C@H](C(=O)N[C@H](C)[C@@H](O)[C@H](C)C(=O)N[C@H](C(=O)NCCc1nc(-c2nc(C(=O)NCCC[S+](C)C)cs2)cs1)[C@@H](C)O)[C@@H](OC1OC(CO)C(O)C(O)C1OC1OC(CO)C(O)C(OC(N)=O)C1O)c1cnc[nH]1 (some centres undefined) [Bleomycin] | 0 | 0
CNC(=O)c1ccccc1Sc1ccc2c(/C=C/c3ccccn3)n[nH]c2c1 [Axitinib] | 0.3 | 2.2
Cc1nc(-c2cn3c(n2)-c2ccc(-c4cnn(C(C)(C)C(N)=O)c4)cc2OCC3)n(C(C)C)n1 [Taselisib] | 19.3 | 17.9
O=C1CN2Cc3c(ccc(Cl)c3Cl)N=C2N1 [Anagrelide] | 0 | 0
O=c1sn(-c2cccc3ccccc23)c(=O)n1Cc1ccccc1 [Tideglusib] | 0 | 0
Cn1cc(-c2cnn3c(N)c(Br)c([C@@H]4CCCNC4)nc23)cn1 [MK-8776] | 1.3 | 1.1
CC[C@H](CO)Nc1nc(NCc2ccccc2)c2ncn(C(C)C)c2n1 [Seliciclib] | 0.2 | 0
CCCCC(=O)OCC(=O)[C@]1(O)Cc2c(O)c3c(c(O)c2[C@@H](O[C@H]2C[C@H](NC(=O)C(F)(F)F)[C@H](O)[C@H](C)O2)C1)C(=O)c1c(OC)cccc1C3=O [Valrubicin] | 8 | 8.6
C#Cc1cccc(Nc2ncnc3cc4c(cc23)OCCOCCOCCO4)c1 [Icotinib] | 1.9 | 1.8
CCC/C=C/C=C/C(=O)O[C@H]1/C(=C/C(=O)OC)C[C@H]2C[C@H]([C@@H](C)O)OC(=O)C[C@H](O)C[C@@H]3C[C@H](OC(C)=O)C(C)(C)[C@](O)(C[C@@H]4C/C(=C/C(=O)OC)C[C@H](/C=C/C(C)(C)[C@]1(O)O2)O4)O3 [Bryostatin 1] | 2.3 | 7.9

Structure (SMILES) | drug sensitivity score (MDA-MB-453 [1]) | drug sensitivity score (MDA-MB-453 [2])
CC(=O)N(O)CCCCCNC(=O)CCC(=O)N(O)CCCCCNC(=O)CCC(=O)N(O)CCCCCN [Deferoxamine] | 4.3 | 2.3
O=C1c2c(O)ccc(O)c2C(=O)c2c(NCCNCCO)ccc(NCCNCCO)c21 [Mitoxantrone] | 5.1 | 4.5
CNC(=O)c1ccc(N2C(=S)N(c3ccc(C#N)c(C(F)(F)F)c3)C(=O)C2(C)C)cc1F [Enzalutamide] | 0 | 1.3
S=c1[nH]cnc2nc[nH]c12 [Mercaptopurine] | 0.7 | 10.9
NC(=O)Nc1cc(-c2cccc(F)c2)sc1C(=O)N[C@H]1CCCNC1 [AZD7762] | 4 | 5
O=C(Nc1cc(Cl)cc2c1[nH]c1cnccc12)c1cccnc1 [PS-1145] | 0.3 | 0
O=C(c1ccc(F)c(F)c1Nc1ccc(I)cc1F)N1CC(O)([C@@H]2CCCCN2)C1 [Cobimetinib] | 0.3 | 1.7
CO[C@@H](C)Cn1c(=O)n(C)c2cnc3ccc(-c4cncc(C(C)(C)O)c4)cc3c21 | 15.3 | 15.3
CNS(=O)(=O)Nc1nccc(Cc2c(C)c3ccc(Oc4ncccn4)cc3oc2=O)c1F | 0.2 | 0.5
CC(C)(C)NC(=O)[C@H]1CC[C@H]2[C@@H]3CC[C@H]4NC(=O)C=C[C@]4(C)[C@H]3CC[C@]12C [Finasteride] | 0 | 0.3
C[C@@H]1CCN(C(=O)CC#N)C[C@@H]1N(C)c1ncnc2[nH]ccc12 [Tofacitinib] | 0 | 0
CNC(=O)c1ccc2cc([C@@]3(O)CCn4cncc43)ccc2c1 [Orteronel] | 0 | 0
CCCOc1ccn2c(C(C)=O)cc(-c3ccccc3S(C)(=O)=O)c2c1 [GSK2801] | 0 | 0
NC(=O)c1cccc(-c2cccc(OC(=O)NC3CCCCC3)c2)c1 [URB597] | 0 | 0
Cc1cc(Nc2ncnc3ccc(NC4=NC(C)(C)CO4)cc23)ccc1Oc1ccn2ncnc2c1 [Tucatinib] | 0.8 | 0.5
CC#CC(=O)N1CC[C@@H](n2c(=O)n(-c3ccc(Oc4ccccc4)cc3)c3c(N)ncnc32)C1 [Tirabrutinib] | 6.3 | 5.7
C1=N/C2=N/c3ccc(OCCN4CCCC4)c(c3)COC/C=C/COCc3cccc(c3)C(=C1)N2 [Pacritinib] | 10 | 8.3
CC(C)NC(=O)COc1cccc(-c2nc(Nc3ccc4[nH]ncc4c3)c3ccccc3n2)c1 [KD025] | 6 | 5.6
Cc1c(F)cc(C(=O)NC2CC2)cc1-c1ccc(C(=O)NCC(C)(C)C)cn1 [Losmapimod] | 1.4 | 0.4
